Test [1] relates to FOPFlash luciferase reporter (mutated Tcf4 binding sites). Put plainly: FOPFlash luciferase reporter assay in SW480 cells. Type of test: cell-based. The following applies: same concentration range as TOPFlash. How it is done:
(§1) The suppressing effect of the inhibitors on transactivation of Wnt/β-catenin signaling was evaluated by the TOPFlash/FOPFlash luciferase reporter assay. In the TOPFlash assay, the luciferase reporter has three wild-type Tcf4 binding sites, while in the FOPFlash assay Tcf4 binding sites were mutated. These tandem Tcf binding sites controls the expression ratio of the firefly luciferase in TOPFlash/FOPFlash assays. The renilla luciferase reporter construct (pCMV-RL) was used as the internal control to normalize luciferase reporter signals and eliminate any possible systematic errors. […] This selectivity trend is consistent with that from MTS cell viability assays. Therefore, further cell-based studies were focused on compound 30.
(§2) Cell Transfection and Luciferase Assay. FuGENE6 (E269A, Promega) 96 well plate format was used for the transfection of SW480 cells according to the manufacturer's instruction. SW480 cells were co-transfected with 60 ng the TOPFlash or FOPFlash firefly luciferase reporter gene and 40 ng renilla luciferase pCMV-RL normalization reporter gene. Cells were cultured in DMEM and 10% FBS at 37° C. for 24 h, and different concentrations of inhibitors or DMSO was added. After 24 h, the luciferase reporter activity was measured using the Dual-Glo system (E2940, Promega). […]

Test [2] concerns the target T1, β-catenin/BCL9 PPI (Homo sapiens, UniProt P35222).
T1 construct: Full-length β-catenin (residues 1-781); host or cells: E. coli BL21 DE3
T1 sequence (P35222 1-781): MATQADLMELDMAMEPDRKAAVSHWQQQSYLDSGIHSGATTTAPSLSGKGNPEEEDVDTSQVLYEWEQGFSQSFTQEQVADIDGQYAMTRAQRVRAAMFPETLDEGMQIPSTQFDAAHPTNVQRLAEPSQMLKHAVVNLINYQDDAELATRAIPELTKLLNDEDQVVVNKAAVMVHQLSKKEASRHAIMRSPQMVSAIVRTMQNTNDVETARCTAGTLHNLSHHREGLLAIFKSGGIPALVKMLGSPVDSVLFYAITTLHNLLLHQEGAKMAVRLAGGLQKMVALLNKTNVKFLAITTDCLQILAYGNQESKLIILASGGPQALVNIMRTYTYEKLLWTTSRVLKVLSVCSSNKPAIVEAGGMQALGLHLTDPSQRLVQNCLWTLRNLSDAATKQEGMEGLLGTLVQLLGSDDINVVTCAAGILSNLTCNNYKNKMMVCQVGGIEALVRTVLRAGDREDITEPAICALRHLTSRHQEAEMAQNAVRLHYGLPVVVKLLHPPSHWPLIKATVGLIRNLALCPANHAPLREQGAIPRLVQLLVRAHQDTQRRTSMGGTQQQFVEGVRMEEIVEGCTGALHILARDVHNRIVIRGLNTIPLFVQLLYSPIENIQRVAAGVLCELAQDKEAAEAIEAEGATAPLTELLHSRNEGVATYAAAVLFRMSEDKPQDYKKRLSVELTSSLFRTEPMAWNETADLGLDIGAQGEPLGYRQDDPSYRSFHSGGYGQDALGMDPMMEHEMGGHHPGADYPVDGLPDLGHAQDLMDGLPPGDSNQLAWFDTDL
Put plainly: AlphaScreen competitive inhibition assay of β-catenin/BCL9 PPI. The test is classed as binding. How it is done:
AlphaScreen Assays of β-Catenin and BCL9 Interaction. Experiments were performed in white opaque 384-well plates from PerkinElmer (Waltham, MA), and the samples were read on a Biotek Synergy 2 plate reader (Winooski, VT) with excitation at 680 nm and emission at 570 nm. The standard AlphaScreen protocol was used with a sensitivity setting of 200. All dilutions were made in 1x assay buffer containing 25 mM Hepes (pH 7.4), 100 mM NaCl, 0.01% Triton X-100 and 0.1% BSA to minimize nonspecific interactions.
For the β-catenin/BCL9 assay, 5 nM biotinylated BCL9, and 50 nM His6-tagged 8-catenin were incubated in assay buffer for 30 min. Different concentrations of the tested inhibitor were added and incubated in 20 μL assay buffer for another 1 h. All of the assay plates were covered and gently mixed on an orbital shaker. Donor and acceptor beads were then added to the plates to a final concentration of 10 μg/mL in 25 μL assay buffer. The mixture was incubated for 1 h before detection. The IC50 value was determined by nonlinear least-square analysis of GraphPad Prism 8.0. […] All of the experiments were performed in triplicate and carried out in the presence of 1% DMSO for small-molecule inhibitors. Each compound was assayed at least by three independent experiments. The results were expressed as mean±standard deviation.

The test system of test [3] is Wnt/β-catenin hyperactive cancer cells. Put plainly: MTS cell viability assays, cell panel. The test is classed as cell-based. To be noted: SW480, HCT116, MDA-MB-231, MDA-MB-468; read-out: IC50s for viability of Wnt/β-catenin hyperactive cancer cells. The procedure:
MTS Cell Growth Inhibition Experiments. Colorectal cancer cells (SW480 and HCT116) and triple negative breast cancer cells (MDA-MB-231 and MDA-MB-468) were seeded in 96-well plates at 5×10^3 cells/well in DMEM with 10% FCS, maintained overnight at 37° C., and incubated with the tested compounds at various concentrations. Human mammary epithelial cell MCF10A were seeded in 96-well plates at 1×10^4 cells/well in MEGM (CC-3150, Lonza) with 100 ng/mL cholera toxin, maintained overnight at 37° C., and incubated with the tested compounds at various concentrations. Cell viability was monitored after 72 h using a freshly prepared mixture of 1 part phenazine methosulfate (PMS, Sigma) solution (0.92 mg/mL) and 19 parts 3-(4,5-dimethylthiazol-2-yl)-5-(3-carboxymethoxyphenyl)-2-(4-sulfophenyl)-2H-tetrazolium (MTS, Promega) solution (2 mg/mL). Cells were incubated in 10 μL of this solution at 37° C. for 3 h, and A490 was measured. […] Experiments were performed in triplicate.

Test [4] relates to Wnt/β-catenin signaling (TOPFlash luciferase reporter). Put plainly: TOPFlash luciferase reporter assay in SW480 cells. Type of test: cell-based. To be noted: Homo sapiens, 24 h. How it is done:
as §1, §2

Where two headings read alike, the source gives them in different places. Some results are limits rather than exact numbers.

As for `CC(C)(Oc1cccc(N2CCC[C@H](C(=O)N(Cc3ccc(-c4cccs4)cc3)C3CC3)C2)c1)C(=O)NS(=O)(=O)c1ccc(C#N)cc1` [Compound 30, (S)-((4-Cyanophenyl)sulfonyl) (2-(3-(3-(cyclopropyl(4-(thiophen-2-yl)benzyl)carbamoyl)piperidin-1-yl)phenoxy)-2-methylpropanoyl)amide], the “effect on FOPFlash luciferase reporter activity” value in test [1] is recorded as “did not show any inhibitory effect”. Further, the Ki is 3.6 µM in test [2] (AlphaScreen competitive inhibition assay, read-out: Ki for disruption of the β-catenin/BCL9 PPI); ≤ 5 µM in test [2] (Table 2, AlphaScreen, inhibitors 27-30 (R- and S-isomers), preliminary, read-out: Ki). The “AlphaScreen inhibitory activity in words” value in test [2] (SAR comparison) is on record as “slightly superior to R-isomer”. The IC50 in test [2] (Table 2, AlphaScreen, inhibitors 27-30 (R- and S-isomers), preliminary) was ≤ 5 µM; in test [3], 14 to 30 µM; in test [4], 6.6 µM.

(Values after patent US20250019371A1, “SMALL-MOLECULAR INHIBITORS FOR THE BETA-CATENIN/ B-CELL LYMPHOMA 9 PROTEIN-PROTEIN INTERACTION” (H. LEE MOFFITT CANCER CENTER AND RESEARCH INSTITUTE, INC., priority 2021, published 2025).)
